{
  "source": "paper PMC5433425",
  "about": "(PeerJ, 2017)",
  "test_system": "E. coli AG100",
  "assay": "Time-kill kinetics (CFU)",
  "assay_type": "cell-based, Escherichia coli",
  "method": "A drug-free control was included in the assay to monitor the normal growth of the strain. Cultures were sampled for CFU determination after 0, 1, 2, 3, 4, 5, 6, and 24 h of incubation at 37 °C with shaking. For CFU determination, 10-fold serial dilutions were made in a saline solution and 20 µl of each solution was placed onto the surface of a Mueller–Hinton agar plate. The colonies were counted after the incubation of the plates at 37 °C for 24 h. The limit of detection of the assay was 17 CFU/ml. Each assay was repeated at least twice.",
  "note": "“And” between values parts separate entries of the source, which are not always exact repeats. Equal entries are not always repeated. Where two headings read alike, the source gives them in different places.",
  "data": [
    {"compound": "CCCOc1ccc(-c2cc(OCCN3CCNCC3)c3ccccc3n2)cc1", "note": "[PQQ4R, 4-(2-(piperazin-1-yl)ethoxy)-2-(4-propoxyphenyl) quinolone]", "values": [
      {"measurement": "time of exposure to reduce viability to zero", "result": "3 h and 4 h"},
      {"measurement": "MBC (minimal bactericidal concentration)", "setting": "AG100", "result": 640, "unit": "µM"},
      {"measurement": "viability", "setting": "AG100, 80 μM (1/8 MIC)", "result": 100, "unit": "%"},
      {"measurement": "viability", "setting": "AG100, 160 μM (1/4 MIC)", "result": 98, "unit": "%"},
      {"measurement": "viability", "setting": "AG100, 320 μM (1/2 MIC)", "result": 92, "unit": "%"},
      {"measurement": "viability", "setting": "AG100, 640 μM (MIC)", "result": 0, "unit": "%"},
      {"measurement": "CFU count Log10", "setting": "AG100, 1/2 MIC, T1 (1 h)", "result": 3.836},
      {"measurement": "CFU count Mean", "setting": "AG100, 1/2 MIC, T1 (1 h)", "result": "6.8E+03"},
      {"measurement": "CFU count Log10", "setting": "AG100, 1/2 MIC, T2 (2 h)", "result": 3.5272},
      {"measurement": "CFU count Mean", "setting": "AG100, 1/2 MIC, T2 (2 h)", "result": "3.4E+03"},
      {"measurement": "CFU count Log10", "setting": "AG100, 1/2 MIC, T3 (3 h)", "result": 3.503},
      {"measurement": "CFU count Mean", "setting": "AG100, 1/2 MIC, T3 (3 h)", "result": "3.2E+03"},
      {"measurement": "CFU count Log10", "setting": "AG100, 1/2 MIC, T4 (4 h)", "result": 3.423},
      {"measurement": "CFU count Mean", "setting": "AG100, 1/2 MIC, T4 (4 h)", "result": "2.6E+03"},
      {"measurement": "CFU count Log10", "setting": "AG100, 1/2 MIC, T5 (5 h)", "result": 2.79},
      {"measurement": "CFU count Mean", "setting": "AG100, 1/2 MIC, T5 (5 h)", "result": "6.2E+02"},
      {"measurement": "CFU count Log10", "setting": "AG100, 1/2 MIC, T6 (6 h)", "result": 2.222},
      {"measurement": "CFU count Mean", "setting": "AG100, 1/2 MIC, T6 (6 h)", "result": "1.7E+02"},
      {"measurement": "CFU count Mean", "setting": "AG100, 1/2 MIC, T24 (24 h)", "result": "2.0E+13"},
      {"measurement": "CFU count - Strain dilution", "setting": "AG100, 2xMIC, T1 (1 h)", "result": 0},
      {"measurement": "CFU count - absolute values", "setting": "AG100, 2xMIC, T1 (1 h)", "result": 0},
      {"measurement": "CFU count Log10", "setting": "AG100, 2xMIC, T1 (1 h)", "result": 0},
      {"measurement": "CFU count Mean", "setting": "AG100, 2xMIC, T1 (1 h)", "result": "0.0E+00"},
      {"measurement": "CFU count - Strain dilution", "setting": "AG100, 2xMIC, T2 (2 h)", "result": 0},
      {"measurement": "CFU count - absolute values", "setting": "AG100, 2xMIC, T2 (2 h)", "result": 0},
      {"measurement": "CFU count Log10", "setting": "AG100, 2xMIC, T2 (2 h)", "result": 0},
      {"measurement": "CFU count Mean", "setting": "AG100, 2xMIC, T2 (2 h)", "result": "0.0E+00"},
      {"measurement": "CFU count - Strain dilution", "setting": "AG100, 2xMIC, T3 (3 h)", "result": 0},
      {"measurement": "CFU count - absolute values", "setting": "AG100, 2xMIC, T3 (3 h)", "result": 0},
      {"measurement": "CFU count Log10", "setting": "AG100, 2xMIC, T3 (3 h)", "result": 0},
      {"measurement": "CFU count Mean", "setting": "AG100, 2xMIC, T3 (3 h)", "result": "0.0E+00"},
      {"measurement": "CFU count - Strain dilution", "setting": "AG100, 2xMIC, T4 (4 h)", "result": 0},
      {"measurement": "CFU count - absolute values", "setting": "AG100, 2xMIC, T4 (4 h)", "result": 0},
      {"measurement": "CFU count Log10", "setting": "AG100, 2xMIC, T4 (4 h)", "result": 0},
      {"measurement": "CFU count Mean", "setting": "AG100, 2xMIC, T4 (4 h)", "result": "0.0E+00"},
      {"measurement": "CFU count - Strain dilution", "setting": "AG100, 2xMIC, T5 (5 h)", "result": 0},
      {"measurement": "CFU count - absolute values", "setting": "AG100, 2xMIC, T5 (5 h)", "result": 0},
      {"measurement": "CFU count Log10", "setting": "AG100, 2xMIC, T5 (5 h)", "result": 0},
      {"measurement": "CFU count Mean", "setting": "AG100, 2xMIC, T5 (5 h)", "result": "0.0E+00"},
      {"measurement": "CFU count - Strain dilution", "setting": "AG100, 2xMIC, T6 (6 h)", "result": 0},
      {"measurement": "CFU count - absolute values", "setting": "AG100, 2xMIC, T6 (6 h)", "result": 0},
      {"measurement": "CFU count Log10", "setting": "AG100, 2xMIC, T6 (6 h)", "result": 0},
      {"measurement": "CFU count Mean", "setting": "AG100, 2xMIC, T6 (6 h)", "result": "0.0E+00"},
      {"measurement": "CFU count - Strain dilution", "setting": "AG100, 2xMIC, T24 (24 h)", "result": 0},
      {"measurement": "CFU count - absolute values", "setting": "AG100, 2xMIC, T24 (24 h)", "result": 0},
      {"measurement": "CFU count Log10", "setting": "AG100, 2xMIC, T24 (24 h)", "result": 0},
      {"measurement": "CFU count Mean", "setting": "AG100, 2xMIC, T24 (24 h)", "result": "0.0E+00"},
      {"measurement": "time of exposure to reduce viability to zero", "setting": "AG100, 2× MIC", "result": 1, "unit": "h"},
      {"measurement": "CFU count - Strain dilution", "setting": "AG100, 4xMIC, T1 (1 h)", "result": 0},
      {"measurement": "CFU count - absolute values", "setting": "AG100, 4xMIC, T1 (1 h)", "result": 0},
      {"measurement": "CFU count Log10", "setting": "AG100, 4xMIC, T1 (1 h)", "result": 0},
      {"measurement": "CFU count Mean", "setting": "AG100, 4xMIC, T1 (1 h)", "result": "0.0E+00"},
      {"measurement": "CFU count - Strain dilution", "setting": "AG100, 4xMIC, T2 (2 h)", "result": 0},
      {"measurement": "CFU count - absolute values", "setting": "AG100, 4xMIC, T2 (2 h)", "result": 0},
      {"measurement": "CFU count Log10", "setting": "AG100, 4xMIC, T2 (2 h)", "result": 0},
      {"measurement": "CFU count Mean", "setting": "AG100, 4xMIC, T2 (2 h)", "result": "0.0E+00"},
      {"measurement": "CFU count - Strain dilution", "setting": "AG100, 4xMIC, T3 (3 h)", "result": 0},
      {"measurement": "CFU count - absolute values", "setting": "AG100, 4xMIC, T3 (3 h)", "result": 0},
      {"measurement": "CFU count Log10", "setting": "AG100, 4xMIC, T3 (3 h)", "result": 0},
      {"measurement": "CFU count Mean", "setting": "AG100, 4xMIC, T3 (3 h)", "result": "0.0E+00"},
      {"measurement": "CFU count - Strain dilution", "setting": "AG100, 4xMIC, T4 (4 h)", "result": 0},
      {"measurement": "CFU count - absolute values", "setting": "AG100, 4xMIC, T4 (4 h)", "result": 0},
      {"measurement": "CFU count Log10", "setting": "AG100, 4xMIC, T4 (4 h)", "result": 0},
      {"measurement": "CFU count Mean", "setting": "AG100, 4xMIC, T4 (4 h)", "result": "0.0E+00"},
      {"measurement": "CFU count - Strain dilution", "setting": "AG100, 4xMIC, T5 (5 h)", "result": 0},
      {"measurement": "CFU count - absolute values", "setting": "AG100, 4xMIC, T5 (5 h)", "result": 0},
      {"measurement": "CFU count Log10", "setting": "AG100, 4xMIC, T5 (5 h)", "result": 0},
      {"measurement": "CFU count Mean", "setting": "AG100, 4xMIC, T5 (5 h)", "result": "0.0E+00"},
      {"measurement": "CFU count - Strain dilution", "setting": "AG100, 4xMIC, T6 (6 h)", "result": 0},
      {"measurement": "CFU count - absolute values", "setting": "AG100, 4xMIC, T6 (6 h)", "result": 0},
      {"measurement": "CFU count Log10", "setting": "AG100, 4xMIC, T6 (6 h)", "result": 0},
      {"measurement": "CFU count Mean", "setting": "AG100, 4xMIC, T6 (6 h)", "result": "0.0E+00"},
      {"measurement": "CFU count - Strain dilution", "setting": "AG100, 4xMIC, T24 (24 h)", "result": 0}
    ]}
  ]
}
